The source of these data is article PMC2864911, “Effect of Common Buffers and Heterocyclic Ligands on the Binding of Cu(II) at the Multimetal Binding Site in Human Serum Albumin” (Bioinorganic Chemistry and Applications, 2010).

The target in assay [1] is T1, Multimetal Binding Site (MBS) of Human Serum Albumin (HSA) (Homo sapiens, UniProt P02768).
T1 construct: purchased Sigma
Nature of the assay: Visible-range CD titration of Cu(II) binding at MBS of HSA. Particulars: for log K app (apparent binding constant of the Cu(II)-MBS complex): 100 mM ligand solution, pH 7.4, 25°C, HSA 0.3–0.5 mM, binary species only assumed; for CI (competitivity index): Cu(II) and Z = 1 μM, HSA = 0.5 mM; for CI (competitivity index) / log K e (MBS + Cu(L) = Cu(MBS)(L)) / log K T (Cu(MBS) + Cu(L) = Cu(MBS)(L) + Cu^2+): pH 7.4; for log K 111 (Cu^2+ + L + MBS = Cu(MBS)(L)): pH 7.4, conditional constant, ternary complex model; for log K e (MBS + Cu(L) = Cu(MBS)(L)): log K 111 = log K 11 + log K e; for log K T (Cu(MBS) + Cu(L) = Cu(MBS)(L) + Cu^2+): log K T = log K 111 − log K 11 − log K app (NaCl). As to the method: The CD spectra were recorded at 25°C on a Jasco J-715 spectropolarimeter (JASCO, Japan Spectroscopic Co., Hiroshima, Japan), over the range of 300–800 nm, using a 1 cm cuvette. The spectra are expressed in terms of Δε = ε l − ε r, where ε l and ε r are molar absorption coefficients for left and right circularly polarized light, respectively. In buffer experiments the solutions contained 100 mM Hepes, Tris, Sodium Phosphate, or NaCl, at pH 7.4.
HSA was dissolved at 0.3–0.5 mM in either a 100 mM Hepes, Tris, Sodium Phosphate buffers, pH 7.4, or in an unbuffered 100 mM NaCl solution. The pH of both types of samples was controlled to remain in the 7.38–7.42 corridor and adjusted with submicroliter amounts of concentrated HCl or NaOH when necessary. Concentrations of stock solutions of HSA were estimated spectrophotometrically at 279 nm and by Cu(II) titrations. The fractional abundance of NTS in HSA was measured by careful CD titrations using calibrated Cu(II) solutions.
We chose sodium phosphate, Tris and Hepes as the most common substances used for buffering protein solutions at pH 7.4. Their effect on Cu(II) binding to HSA was studied at a 0.1 M concentration stage versus unbuffered 0.1 M NaCl, used as a control solution. The choice of the latter was dictated by the presence of 0.1 M chloride in the blood serum. The pH of the NaCl samples was controlled by additions of small quantities of concentrated HCl or NaOH solutions, when necessary. […] The titrations were monitored by CD spectroscopy, analogously to our previous studies.
A typical titration is presented on Figure 1.
Apparent binding constants (K app) for Cu(II)-MBS complexes in the presence of buffers were obtained from titrations presented in Figure 2. Table 1 contains also further constants, calculated relative to the Cu(II)-MBS interaction in NaCl, taken as corresponding to a 100% binary complex formation.
First, the effects of competition of buffers for Cu(II) were accounted for Literature protonation and Cu(II) binding constants of Hepes, Tris, and phosphate ions were used in these calculations. […] The reactions defining these constants are provided in the footnotes of Table 1.
Briefly, K 111 describes the overall formation of a ternary species, K 11 is the literature binding constant of the Cu(II) complex of a buffer, K e corresponds to the ternary complex formation by addition of buffer-complexed Cu(II) to MBS, and K T is the equilibrium constant of the formation of the ternary complex in the reaction of two binary complexes, thus featuring the tendency of binary components to form a ternary species. All these constants, except for K 11, are conditional in respect to the pH value of 7.4.

The conditions of assay [2]: literature values ref 30–32; cited from earlier work.
Assay [3] has as its system HSA. Particulars: cited from earlier work.

T1 sequence (P02768 25-609): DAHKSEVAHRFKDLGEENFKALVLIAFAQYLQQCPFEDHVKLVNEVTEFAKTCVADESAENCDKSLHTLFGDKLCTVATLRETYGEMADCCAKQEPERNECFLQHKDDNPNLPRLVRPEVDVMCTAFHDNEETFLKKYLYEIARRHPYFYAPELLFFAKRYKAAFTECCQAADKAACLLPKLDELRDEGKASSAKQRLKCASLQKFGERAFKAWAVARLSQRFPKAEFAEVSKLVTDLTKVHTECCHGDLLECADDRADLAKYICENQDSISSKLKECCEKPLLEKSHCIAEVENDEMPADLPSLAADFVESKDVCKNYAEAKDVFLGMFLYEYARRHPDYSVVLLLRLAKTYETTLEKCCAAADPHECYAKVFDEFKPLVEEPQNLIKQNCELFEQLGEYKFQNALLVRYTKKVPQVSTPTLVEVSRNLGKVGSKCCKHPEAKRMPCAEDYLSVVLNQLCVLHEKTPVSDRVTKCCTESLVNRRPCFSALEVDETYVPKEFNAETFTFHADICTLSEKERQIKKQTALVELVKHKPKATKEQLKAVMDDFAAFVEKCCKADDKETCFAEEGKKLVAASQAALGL

Regarding `O=S(=O)(O)CCN1CCN(CCO)CC1` [Hepes, N-2-hydroxyethylpiperazine-N′-2-ethanesulfonic acid], in assay [1], the “log K app (apparent binding constant of the Cu(II)-MBS complex)” value (shortened to “log K app”) is listed as 4.45(5), the “log K 111 (Cu^2+ + L + MBS = Cu(MBS)(L))” value was 7.54(5), the “log K e (MBS + Cu(L) = Cu(MBS)(L))” value was 4.32 and the “log K T (Cu(MBS) + Cu(L) = Cu(MBS)(L) + Cu^2+)” value (“log K T” below) is recorded as −0.28. In addition, in assay [1] ([L] = 0.5 mM), the “CI (competitivity index)” value is reported as 7.71. In assay [1] ([L] = 100 mM), the “CI (competitivity index)” value amounted to 9.27. For the same compound, the “log K 11 (Cu^2+ + L = Cu(L))” value in assay [2] was 3.22.

For `[Cl-].[Na+]` [NaCl], the “log K app” value in assay [1] was 4.60(3). Further, the “CI (competitivity index)” value in assay [1] ([L] = 0.5 mM) and in assay [1] ([L] = 100 mM) was 7.62 each time.

On to `O=P(O)(O)O` [Phosphate, sodium phosphate], for which, in assay [1], the “log K app” value is 5.17(7), the “log K 111 (Cu^2+ + L + MBS = Cu(MBS)(L))” value is recorded as 8.2(1), the “log K e (MBS + Cu(L) = Cu(MBS)(L))” value was found to be 5.00 and the “log K T” value is “+0.40”. In addition, the “CI (competitivity index)” value in assay [1] ([L] = 0.5 mM) amounted to 8.04. Further, the “CI (competitivity index)” value in assay [1] ([L] = 100 mM) came out at 10.13. Also, the “log K 11 (Cu^2+ + L = Cu(L))” value in assay [2] was 3.20.

For `NC(CO)(CO)CO` [Tris, 2-amino-2(hydroxymethyl)-1,3-propanediol], in assay [1], the “log K app” value is on record as 4.23(6), the “log K 111 (Cu^2+ + L + MBS = Cu(MBS)(L))” value is recorded as 8.22(5), the “log K e (MBS + Cu(L) = Cu(MBS)(L))” value is recorded as 4.17 and the “log K T” value is −0.43. For the same compound, the “CI (competitivity index)” value in assay [1] ([L] = 0.5 mM) was 7.74. Further, the “CI (competitivity index)” value in assay [1] ([L] = 100 mM) was determined as 9.42. For the same compound, the “log K 11 (Cu^2+ + L = Cu(L))” value in assay [2] is listed as 4.05.

In the case of `CC(=O)CC(c1ccccc1)c1c(O)c2ccccc2oc1=O` (stereo not shown) [War, warfarin], the HSA binding constant in assay [3] is 330000 M⁻¹.
